In one data set the test system is Arabidopsis seedlings. The data set is described as follows: Arabidopsis seedling growth / root elongation on MS medium with exogenous NAE 12:0. The following applies: for EC50: Arabidopsis thaliana. The data set is classed as in vivo. How it is done: FIG. 11A-11C. Lengths of Arabidopsis seedling radicles/roots were measured daily after planting on MS medium that contained increasing concentrations of NAE 12:0. Data points are averages and standard deviation of 20 or more seedlings germinated and grown under identical conditions. There was a pronounced dose-dependent reduction in radicle/root length and elongation rate, similar to that shown previously (Blancaflor et al., 2003) for wildtype seedlings (FIG. 11A), and this seedling growth inhibition was more pronounced at higher NAE concentrations for both knockout lines (FIG. 11B and FIG. 11C).
FIG. 12. The rate of root elongation was calculated by a linear regression of the data presented in FIG. 11, and plotted as a function of NAE concentration.
Composite images were taken from seedlings grown on different plates, and were representative of typical replicate experiments. […] The altered profiles of extractable FAAH enzyme activities in mutant and transgenic plants led to predictable differences in the sensitivity of seedlings to exogenous NAE 12:0 indicating a modified ability of these plants to metabolize NAEs. Seedling growth of Arabidopsis wildtype seedlings was inhibited by exogenous treatment of NAE12:0).

Data set [1] deals with Medicago truncatula (Mt) FAAH (Medicago truncatula, UniProt G7ISB0, G303S). The data set is classed as biochemical. The following applies: E. coli lysate, compared with NAE 18:2.
Another data set relates to rice (Os) FAAH. The data set is described as follows: NAE amidohydrolase activity of E. coli lysates expressing rice (Os) FAAH cDNA. The data set is classed as biochemical, Oryza sativa. The following applies: E. coli lysate, compared with NAE 18:2.
In data set [2] the target is Arabidopsis NAE amidohydrolase (Arabidopsis thaliana, UniProt Q7XJJ7). As to the kind of experiment: NAE amidohydrolase activity survey in crude E. coli lysates expressing Arabidopsis cDNA. The class given is biochemical.
Data set [3] concerns the target Arabidopsis NAE amidohydrolase (FAAH) (Arabidopsis thaliana, UniProt Q7XJJ7). The data set is classed as biochemical.
Substrate in data set [4]: CCCCC/C=C\C/C=C\CCCCCCCC(=O)NCCO
The data set is described as follows: purified protein, by the assay type. The following applies: other: apparent, substrate, 1 μg protein, pH 9.0, 30 min, 30° C., Michaelis-Menten fit.

Substrate in data set [5]: CCCCC/C=C\C/C=C\C/C=C\C/C=C\CCCC(=O)NCCO
The data set is described as follows: purified protein, by the assay type. The following applies: other: apparent, substrate, 1 μg protein, pH 9.0, 30 min, 30° C., Michaelis-Menten fit.

Substrate in data set [6]: CCCCCCCCCCCC(=O)NCCO
As to the kind of experiment: purified protein, by the assay type. The following applies: other: apparent, substrate, 1 μg protein, pH 9.0, 30 min, 30° C., Michaelis-Menten fit.

Substrate in data set [7]: CCCCCCCCCCCCCC(=O)NCCO
The data set is described as follows: purified protein, by the assay type. The following applies: other: apparent, substrate, 1 μg protein, pH 9.0, 30 min, 30° C., Michaelis-Menten fit.

Substrate in data set [8]: CCCCCCCCCCCCCCCC(=O)NCCO
As to the kind of experiment: purified protein, by the assay type. The following applies: other: apparent, substrate, 1 μg protein, pH 9.0, 30 min, 30° C., Michaelis-Menten fit.

Several values for one entry are separate records, joined by “and”; a condition that tells them apart may be missing. Identical values can stand only once. Like-named read-outs stand apart in the source and are kept apart here.

Sequence of Medicago truncatula (Mt) FAAH (G7ISB0 whole entry G303S, looked up, the tested form may be a part): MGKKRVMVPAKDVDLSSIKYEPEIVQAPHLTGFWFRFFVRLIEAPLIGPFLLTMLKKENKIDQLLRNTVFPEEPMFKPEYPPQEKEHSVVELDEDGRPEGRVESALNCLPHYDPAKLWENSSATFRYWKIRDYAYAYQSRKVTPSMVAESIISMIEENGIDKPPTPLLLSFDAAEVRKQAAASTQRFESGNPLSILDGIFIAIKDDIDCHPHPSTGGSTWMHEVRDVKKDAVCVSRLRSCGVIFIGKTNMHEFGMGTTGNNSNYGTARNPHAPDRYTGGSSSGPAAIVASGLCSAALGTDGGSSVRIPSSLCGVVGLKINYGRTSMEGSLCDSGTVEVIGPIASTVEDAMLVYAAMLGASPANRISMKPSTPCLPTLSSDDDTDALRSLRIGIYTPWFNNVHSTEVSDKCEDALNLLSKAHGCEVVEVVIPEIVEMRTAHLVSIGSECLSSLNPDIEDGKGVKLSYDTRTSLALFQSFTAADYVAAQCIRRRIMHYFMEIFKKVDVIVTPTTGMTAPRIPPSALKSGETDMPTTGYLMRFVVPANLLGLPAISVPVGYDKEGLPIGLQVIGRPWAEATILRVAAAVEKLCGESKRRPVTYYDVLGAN

Consider `CCCCCCCCCCCC(=O)NCCO` [NAE 12:0, N-lauroylethanolamine], for which the EC50 in the data set with Arabidopsis seedlings (FAAH knockout seedlings, first value of the two knockout lines, read-out: EC50, rate of root elongation) was 18 µM; in the data set with Arabidopsis seedlings (FAAH knockout seedlings, second value of the two knockout lines, read-out: EC50, rate of root elongation), 23 µM; in the data set with Arabidopsis seedlings (read-out: concentration that reduced growth by 50% (EC50), rate of root elongation, wildtype seedlings), around 29 µM. In addition, the seedling growth inhibition entry in the data set with Arabidopsis seedlings (FAAH gene expression reduced, particularly knockouts, 14 d growth) is “greatly exacerbated”. In addition, in the data set with Arabidopsis seedlings (FAAH overexpressors, 14 d growth), the “seedling sensitivity to application” value is recorded as “essentially insensitive”. Further, the seedling growth entry in the data set with Arabidopsis seedlings (wildtype seedlings, continuous exposure, 14 d growth) is recorded as “reduced”.
With `CCCCCCCCCCCCCCCC(=O)NCCO` [NAE 16:0, N-palmitoylethanolamine], the suitability as substrate result (in [1]; in the data set on rice (Os) FAAH) was “equally suitable substrates” in each case.
Turning to `CCCCC/C=C\C/C=C\CCCCCCCC(=O)NCCO` [NAE 18:2, N-linoleoylethanolamine], in [2], the “hydrolysis as substrate by recombinant Arabidopsis NAE amidohydrolase” value is on record as “effectively hydrolyzed”.
Regarding ceramide, in [2], the “hydrolysis as substrate by recombinant Arabidopsis NAE amidohydrolase” value is on record as “did not hydrolyze” and the “influence on NAE hydrolysis” value was “nor did ceramide influence NAE hydrolysis”.
Regarding `O=S(=O)(F)Cc1ccccc1` [PMSF, Phenylmethylsulfonyl fluoride], the “Specific Activity” value in data set [3] is 11.34 ± 0.55 μmol h^−1 mg^−1 Protein and 9.06 ± 1.86 μmol h^−1 mg^−1 Protein and 7.89 ± 0.37 μmol h^−1 mg^−1 Protein and 6.72 ± 0.70 μmol h^−1 mg^−1 Protein and 5.96 ± 0.43 μmol h^−1 mg^−1 Protein.

B1: recombinant Arabidopsis thaliana NAE amidohydrolase (Arabidopsis thaliana) (protein)
chain: MGKYQVMKRASEVDLSTVKYKAETMKAPHLTGLSFKLFVNLLEAPLIGSLIVDYLKKDNGMTKIFRNTVIPEEPMFRPEFPSQEPEHDVVIVGEDESPIDRLETALKCLPQYDPSRSLHADPVSSFRYWKIRDYAYAYRSKLTTPLQVAKRIISIIEEFGYDKPPTPFLIRFDANEVIKQAEASTRRFEQGNPISVLDGIFVTIKDDIDCLPHPTNGGTTWLHEDRSVEKDSAVVSKLRSCGAILLGKANMHELGMGTTGNNSNYGTTRNPHDPKRYTGGSSSGSAAIVAAGLCSAALGTDGGGSVRIPSALCGITGLKTTYGRTDMTGSLCEGGTVEIIGPLASSLEDAFLVYAAILGSSSADRYNLKPSPPCFPKLLSHNGSNAIGSLRLGKYTKWFNDVSSSDISDKCEDILKLLSNNHGCKVVEIVVPELEEMRAAHVISIGSPTLSSLTPYCEAGKNSKLSYDTRTSFAIFRSFSASDYIAAQCLRRRLMEYHLNIFKDVDVIVTPTTGMTAPVIPPDALKNGETNIQVTTDLMRFVLAANLLGFPAISVPVGYDKEGLPIGLQIMGRPWAEATVLGLAAAVEELAPVTKKPAIFYDILNTN
In general, Km refers to the substrate concentration at which the rate is half of its maximum. Usually Vmax stands for the top rate of the reaction or transport when substrate is in excess. Regarding B1, the Michaelis constant (Km) stood at 26.2 ± 5.3 µM in data set [4]; 13.6 ± 2.1 µM in data set [5]; 17.6 ± 2.8 µM in data set [6]; 37.0 ± 5.6 µM in data set [7]; 50.8 ± 14.1 µM in data set [8]. Further, the Vmax in data set [4] came to 0.235 µmol/min/mg; in [5], 0.298 µmol/min/mg; in data set [6], 0.232 µmol/min/mg; in data set [7] it was 0.152 µmol/min/mg; in data set [8], 0.202 µmol/min/mg.
